Patent publication US20260034075A1, “CHOLINE CARBOXYLIC ACID BASED IONIC LIQUIDS AS ANTIMICROBIAL AGENTS” (University of Mississippi, priority 2022, published 2026)

System: E. coli [BL21(DE3)]
Test: Minimal Bactericidal Concentration (MBC) measurements, E. coli
Format: cell-based
Settings: not given
Protocol: (§1) Bacterial Cell Culturing. Expression cells from frozen stock were streaked onto a kanamycin-selected lysogeny broth (LBKan) agar plate using a sterile loop and incubated overnight at 37° C. One colony was then taken from the plate the next day to inoculate 50 mL of sterile LBKan broth and shaken at 37° C. until reaching a growth concentration of 4×10^8 CFU/mL. This protocol was used for bacterial cell culture preparation in all of the experiments described below.
Minimal Bactericidal Concentration (MBC) Measurements. E. coli cells were cultured as described above and aliquoted into sterile tubes. 1%, 10%, and 100% (w/v) solutions of IL in sterile water (correcting for water percentage of the IL) were prepared and sonicated for 15 minutes at 40° C. before addition to the liquid culture. IL solutions were then added to E. coli at varying percentages (v/v), allowing calculation of the actual concentration of IL that was added to the culture. 100 μL of each solution was then spread onto an LBKan agar plate and incubated overnight at 37° C. […] Each IL solution was tested in triplicate.

| Molecule | E. coli MBC / killing efficacy concentration [mM] |
| --- | --- |
| CCCCCCCCCCCC(=O)[O-].C[N+](C)(C)CCO [CADDA 1:1, Choline Dodecanoate 1:1] | 17.1 |

Same assay, conditions: Table 1; lowest IL concentration with no growth on LBKan agar plate, triplicate

| Molecule | E. coli MBC [mM] |
| --- | --- |
| CC=CC(=O)[O-].C[N+](C)(C)CCO [CA2BE 1:1, Choline 2-Butenoate 1:1] | 1330.40 |
| CCCCCCCC=CC(=O)[O-].C[N+](C)(C)CCO [CA2DE 1:1, Choline 2-Decenoate 1:1] | 3.67 |
| CCCC=CC(=O)[O-].C[N+](C)(C)CCO [CA2HE 1:1, Choline 2-Hexenoate 1:1] | 507.63 |
| CCCCC=CC(=O)[O-].C[N+](C)(C)CCO [CA2HPE 1:1, Choline 2-Heptenoate 1:1] | 346.93 |
| CCCCCC/C=C/C(=O)O [CA2NE 1:1, Choline 2-Nonenoate 1:1] | 56.40 |
| CCCCCC/C=C/C(=O)O [CA2NE 1:2, Choline 2-Nonenoate 1:2] | 1.22 |
| CCCCC/C=C/C(=O)O [CA2OE 1:1, Choline 2-Octenoate 1:1] | 84.70 |
| CCC=CC(=O)[O-].C[N+](C)(C)CCO [CA2PE 1:1, Choline 2-Pentenoate 1:1] | 1151.30 |
| CCCCCCCC/C=C/C(=O)O [CA2UE 1:1, Choline 2-Undecenoate 1:1] | 15.08 |
| C=CCC(=O)[O-].C[N+](C)(C)CCO [CA3BE 1:1, Choline 3-Butenoate 1:1] | 1350.93 |
| CCCCCCC=CCC(=O)[O-].C[N+](C)(C)CCO [CA3DE 1:1, Choline 3-Decenoate 1:1] | 3.10 |
| CC/C=C/CC(=O)O [CA3HE 1:1, Choline 3-Hexenoate 1:1] | 511.17 |
| CCCC=CCC(=O)[O-].C[N+](C)(C)CCO [CA3HPE 1:1, Choline 3-Heptenoate 1:1] | 347.63 |
| C[N+](C)(C)CCO.O=C([O-])CCS [CA3MP 1:1, Choline 3-Mercaptopropionate 1:1] | 1378.42 |
| CCCCC/C=C/CC(=O)O [CA3NE 1:1, Choline 3-Nonenoate 1:1] | 57.50 |
| CCCC/C=C/CC(=O)O [CA3OE 1:1, Choline 3-Octenoate 1:1] | 92.00 |
| CC=CCC(=O)[O-].C[N+](C)(C)CCO [CA3PE 1:1, Choline 3-Pentenoate 1:1] | 1152.23 |
| CC(=O)OCC(=O)O [CAAA 1:1, Choline Acetoxyacetate 1:1] | 73.40 |
| CCCC(=O)[O-].C[N+](C)(C)CCO [CABA 1:1, Choline Butanoate 1:1] | 1234.35 |
| CCCCCCCCCCCC(=O)[O-].C[N+](C)(C)CCO [CADDA 1:1, Choline Dodecanoate 1:1] | 17.10 |
| CCOCC(=O)[O-].C[N+](C)(C)CCO [CAEA 1:1, Choline Ethoxyacetate 1:1] | 1746.07 |

| Molecule | E. coli MBC [mM] |
| --- | --- |
| C[N+](C)(C)CCO.O=C([O-])/C=C/C(=O)O [CAFU 1:1, Choline Fumarate 1:1] | 27.17 |
| CC/C=C(\C)C(=O)O [CAGAS 1:1, Choline trans-2-Methyl-2-Pentenoate 1:1] | 530.73 |
| CC/C=C(\C)C(=O)O [CAGAS 1:2, Choline trans-2-Methyl-2-Pentenoate 1:2] | 44.60 |
| CCCCCC(=O)[O-].C[N+](C)(C)CCO [CAHA 1:1, Choline Hexanoate 1:1] | 483.53 |
| CCCCCCC(=O)[O-].C[N+](C)(C)CCO [CAHPA 1:1, Choline Heptanoate 1:1] | 101.80 |
| C[N+](C)(C)CCO.O=C([O-])CC(=O)O [CAMA 1:1, Choline Malonate 1:1] | 1368.53 |
| C[N+](C)(C)CCO.O=C([O-])C=CC(=O)O [CAME 1:1, Choline Maleate 1:1] | 38.37 |
| C[N+](C)(C)CCO.O=C(O)CC(O)C(=O)[O-] (centres unmarked) [CAMI 1:1, Choline Malate 1:1] | 1126.13 |
| CCCCCCCCC(=O)[O-].C[N+](C)(C)CCO [CANA 1:1, Choline Nonanoate 1:1] | 13.63 |
| CCCCCCCC(=O)[O-].C[N+](C)(C)CCO [CAOA 1:1, Choline Octanoate 1:1] | 76.63 |
| CCCCC(=O)[O-].C[N+](C)(C)CCO [CAPA 1:1, Choline Pentanoate 1:1] | 792.10 |
| CCCCCCCCCCC(=O)[O-].C[N+](C)(C)CCO [CAUA 1:1, Choline Undecanoate 1:1] | 15.50 |
| Choline 2-Butenoate 1:2 [CA2BE 1:2] | 158.97 |
| Choline 2-Decenoate 1:2 [CA2DE 1:2] | 0.77 |
| Choline 2-Heptenoate 1:2 [CA2HPE 1:2] | 21.33 |
| Choline 2-Hexenoate 1:2 [CA2HE 1:2] | 54.37 |
| Choline 2-Octenoate 1:2 [CA2OE 1:2] | 5.18 |
| Choline 2-Pentenoate 1:2 [CA2PE 1:2] | 120.10 |
| Choline 2-Undecenoate 1:2 [CA2UE 1:2] | 1.78 |
| Choline 3-Butenoate 1:2 [CA3BE 1:2] | 153.33 |
| Choline 3-Decenoate 1:2 [CA3DE 1:2] | 0.57 |

| Molecule | E. coli MBC [mM] |
| --- | --- |
| Choline 3-Heptenoate 1:2 [CA3HPE 1:2] | 18.93 |
| Choline 3-Hexenoate 1:2 [CA3HE 1:2] | 52.00 |
| Choline 3-Mercaptopropionate 1:2 [CA3MP 1:2] | 101.07 |
| Choline 3-Octenoate 1:2 [CA3OE 1:2] | 2.16 |
| Choline 3-Pentenoate 1:2 [CA3PE 1:2] | 134.83 |
| Choline Acetoxyacetate 1:2 [CAAA 1:2] | 12.41 |
| Choline Butanoate 1:2 [CABA 1:2] | 152.70 |
| Choline Dodecanoate 1:2 [CADDA 1:2] | 8.34 |
| Choline Ethoxyacetate 1:2 [CAEA 1:2] | 89.20 |
| Choline Fumarate 1:2 [CAFU 1:2] | 10.05 |
| Choline Heptanoate 1:2 [CAHPA 1:2] | 16.33 |
| Choline Hexanoate 1:2 [CAHA 1:2] | 28.23 |
| Choline Malate 1:2 [CAMI 1:2] | 91.80 |
| Choline Maleate 1:2 [CAME 1:2] | 20.00 |
| Choline Malonate 1:2 [CAMA 1:2] | 21.60 |
| Choline Nonanoate 1:2 [CANA 1:2] | 1.01 |
| Choline Octanoate 1:2 [CAOA 1:2] | 4.91 |
| Choline Pentanoate 1:2 [CAPA 1:2] | 110.37 |
| Choline Undecanoate 1:2 [CAUA 1:2] | 1.98 |

Same assay, conditions: Table 2, comparison with MRSA

| Molecule | E. coli MBC [mM] |
| --- | --- |
| Choline 2-Undecenoate 1:2 [CA2UE 1:2] | 1.78 |
| Choline 3-Decenoate 1:2 [CA3DE 1:2] | 0.57 |
| Choline Dodecanoate 1:2 [CADDA 1:2] | 8.34 |
| Choline Undecanoate 1:2 [CAUA 1:2] | 1.98 |

System: MRSA [BAA-1708]
Test: Growth inhibition / MBC of Methicillin Resistant Staphylococcus aureus (MRSA)
Format: cell-based
Settings: not given
Protocol: as §1
Growth Inhibition of Methicillin Resistant Staphylococcus Aureus (MRSA). 10% (w/v) solutions of IL in sterile water were prepared similarly to the E. coli MBC experiments. ILs with anion chain lengths of 8-12 carbons at 1:2 mole ratio of choline to anion were added to MRSA at varying concentrations to determine the lowest concentration in which growth was inhibited. Concentrations were then compared to values obtained for E. coli for each solution.

| Molecule | MRSA MBC [mM] |
| --- | --- |
| Choline Dodecanoate 1:2 [CADDA 1:2] | 0.99 |

Same assay, conditions: Table 2; 1:2 mole ratio ILs

| Molecule | MRSA MBC [mM] |
| --- | --- |
| Choline 2-Undecenoate 1:2 [CA2UE 1:2] | 1.06 |
| Choline 3-Decenoate 1:2 [CA3DE 1:2] | 1.13 |
| Choline Dodecanoate 1:2 [CADDA 1:2] | 0.99 |
| Choline Undecanoate 1:2 [CAUA 1:2] | 2.10 |
